# Laboratory results: US20070248694A1, “Anti-inflammatory properties of a standardized extract from Euphorbia hirta (PM-251) activity and for treating conditions of inflammation” (PhytoMyco Research Corporation, priority 2006, published 2007)
# Assays:
# Format in all cases: in vivo, Wister strain - Albino rats
# [1] = test system: Carrageenin induced rat paw edema; assay: Carrageenin induced rat paw edema; settings: 100 mg/kbw oral single dose
# Experimental: Dose Levels • Control: One ml of 1% gum acacia • Standard: 100 mg/kbw (kilogram body weight) in acute models and sub-acute models. • T1:100 mg/kbw and T2:200 mg/kbw in Carrageenin and Turpentine models and T1: […] All drugs (dose) were given only once a day. 2. Method of performance study • Main assays: The test article, the standard and control were administered: a. Carrageenin induced rat paw edema: The respective drug was administered in single dose through mouth 1 hour before the administration of phlogistic agent. The method used comprises of the study of the acute inflammatory reaction induced by injecting the phlogistic agent carrageenin into the subplantar surface of the right hindpaw of the rat. […] Lesser the mean paw volume more was the anti-inflammatory potential and vice versa. • b. Turpentine induced arthritis: The respective drug was administered in single dose through mouth 1 hour before the administration of phlogistic agent. This is one of the commonly employed models to induce arthritis in the rat; 0.01 ml turpentine was injected to the right knee joint. The maximum diameter of the right knee joint was measured at ‘0’ hour and at the end of ‘4’ hours after the injection with the help of screw gauge and the difference between ‘0’ hour and ‘4’ hour reading gave the actual arthritis. […]
# [2] = test system: Turpentine induced arthritis; assay: Turpentine induced arthritis; settings: 100 mg/kbw oral single dose
# Experimental: Dose Levels • Control: One ml of 1% gum acacia • Standard: 100 mg/kbw (kilogram body weight) in acute models and sub-acute models. • T1:100 mg/kbw and T2:200 mg/kbw in Carrageenin and Turpentine models and T1: […] All drugs (dose) were given only once a day. 2. Method of performance study • Main assays: The test article, the standard and control were administered: a. Carrageenin induced rat paw edema: The respective drug was administered in single dose through mouth 1 hour before the administration of phlogistic agent. The method used comprises of the study of the acute inflammatory reaction induced by injecting the phlogistic agent carrageenin into the subplantar surface of the right hindpaw of the rat. […] Lesser the mean paw volume more was the anti-inflammatory potential and vice versa. • b. Turpentine induced arthritis: The respective drug was administered in single dose through mouth 1 hour before the administration of phlogistic agent. This is one of the commonly employed models to induce arthritis in the rat; 0.01 ml turpentine was injected to the right knee joint. The maximum diameter of the right knee joint was measured at ‘0’ hour and at the end of ‘4’ hours after the injection with the help of screw gauge and the difference between ‘0’ hour and ‘4’ hour reading gave the actual arthritis. Lesser the mean diameter right knee joint more the anti-inflammatory potential and vice versa. • c. Formalin induced experimental peritonitis: The respective drug was administered in single dose through mouth 1 hour before the administration of phlogistic agent by injecting 1 ml of 1% formalin in to the peritoneal cavity. […] Lesser the mean exudates more is the anti-inflammatory potential and vice versa. • d. Cotton wool pellet induced granuloma: The respective drug was administered by mouth in single dose one hour prior to the cotton pellet implantation on the first day and subsequently every day for next five days. The extent of formation of foreign body granuloma (granulation tissue) is the main criterion for evaluating anti-inflammatory activity. […]
# [3] = test system: Formalin induced peritonitis; assay: Formalin induced experimental peritonitis; settings: 100 mg/kbw oral single dose
# Experimental: (§1) Dose Levels • Control: One ml of 1% gum acacia • Standard: 100 mg/kbw (kilogram body weight) in acute models and sub-acute models. • T1:100 mg/kbw and T2:200 mg/kbw in Carrageenin and Turpentine models and T1: 200 mg/kbw and T2:400 mg/kbw in Cotton pellet granuloma and Formalin induced arthritis model. […] All drugs (dose) were given only once a day. 2. Method of performance study • Main assays: The test article, the standard and control were administered: a. Carrageenin induced rat paw edema: The respective drug was administered in single dose through mouth 1 hour before the administration of phlogistic agent. The method used comprises of the study of the acute inflammatory reaction induced by injecting the phlogistic agent carrageenin into the subplantar surface of the right hindpaw of the rat. […] Lesser the mean paw volume more was the anti-inflammatory potential and vice versa. • b. Turpentine induced arthritis: The respective drug was administered in single dose through mouth 1 hour before the administration of phlogistic agent. […] The maximum diameter of the right knee joint was measured at ‘0’ hour and at the end of ‘4’ hours after the injection with the help of screw gauge and the difference between ‘0’ hour and ‘4’ hour reading gave the actual arthritis. […]
# [4] = test system: Cotton pellet induced granuloma; assay: Cotton wool pellet induced granuloma; settings: 100 mg/kbw oral once daily
# Experimental: as §1
structure (smiles),measurement,setting,value
COc1ccc2c(c1)c(CC(=O)O)c(C)n2C(=O)c1ccc(Cl)cc1 [Indomethacin],Inhibitory Potency Values,[1],3.98
same,Mean volume (in ml.) (±) SEM,"[1]; paw edema volume, difference 0 h to 4 h",0.88 ± 0.52 mL
same,% inhibition with respect to control,[2],84.95%
same,Inhibitory Potency Values,[2],0.85
same,Mean volume (in mm.) (±) SEM,"[2]; right knee joint diameter, difference 0 h to 4 h",1.55 ± 0.19 mm
same,Inhibitory Potency Values,[3],1.38
same,Mean volume (in ml.) (±) SEM,[3]; peritoneal exudate volume after 4 hours,0.57 ± 0.14 mL
same,Inhibitory Potency Values,[4],2.38
same,Mean volume (in mg.) (±),"[4]; granulation tissue weight on dried cotton pellet, sixth day",6.54 ± 0.36 mg
